Assay results reported in patent US7425556B2 (priority 2005, dated 2008).

Assays:
[1] = molecular target: T1, GABAA2 receptors (α2, β3, γ2 receptor subunits) (Homo sapiens, UniProt P18507+P47869); test: biochemical; settings: [3H]-Flunitrazepam ~2 nM, α2β3γ2 Sf9 membranes, 1 hr at 4° C.; read-out: GABAA2 Binding Ki
T1 construct: host or cells: Sf9 cells (membranes)
Procedure: In some embodiments, the binding test was directed to a subtype of GABAA receptors, such as GABAA1 receptors (i.e., those containing the α1 subunit), GABAA2 receptors (i.e., those containing the α2 subunit), GABAA3 receptors (i.e., those containing the α3 subunit) and GABAA5 receptors (i.e., those containing the α5 subunit).
[formula] Method FF GABAA2 Binding Method Reagents
Assay and Wash Buffer: 50 mM Tris-Citrate, 200 mM NaCl, pH 7.8
Compounds at 10 mM in DMSO: Put 75 μl in column 1 of compound plate.
Flumazenil, 10 mM (for NSB)
[^3H]-Flunitrazepam (Cat #NET567): Prepare 10× stock=20 nM, [F} in assay=˜2 nM
1. […] Add 5 ul of 30 uM flumazenil to wells 12 D-E for 50% control wells.
2. Spot 2 μl of compound dilutions into dry plate (Automation Program 3). Manually spot 2 μl 10 mM flumazenil into wells 12 F-H for nonspecific control.
3. Make 1:100 dilution in assay buffer (2 μl into 200 μl) and dispense 25 μl compound into assay plates (Automation Program 4).
4. Dispense 200 μl membranes into assay plate (Automation Program 5).
5. Add 25 μl [^3H]-Flunitrazepam (Automation Program 6). Incubate for 1 hr at 4° C.
6. Collect membranes on a cell harvester onto GF/B filter plates (pre-wet with dH2O and wash 5×400 μl/well, with cold assay buffer. (First 3 washes are considered hot; last two are cold.)
7. Dry plates for 2-3 hours at RT.
8. Add 40 μl Microsecond 40/well (Automation Program 7); seal plates. Count on a Top Count.
Data is analyzed by calculating percent of control, IC50, and Kid in an Lift template. The following formula is used in the templates: […]

[2] = molecular target: T2, GABAA1 (human α1β2γ2 GABAA receptor) (Homo sapiens, UniProt P14867+P18507); test: Two-electrode voltage-clamp in Xenopus oocytes, potentiation of GABA EC10 current, GABAA1; format: cell-based; settings: percentage potentiation of GABA EC10 current divided by that of diazepam
T2 construct: expressed in transfected cells; host or cells: Xenopus laevis oocytes injected with capped cRNA
Description: (§1) Presently available GABAA modulator anxiolytics work via interactions at the classical benzodiazepine binding site. To a large degree these anxiolytics lack GABAA receptor subtype-selectivity. The subtype-selective GABAA receptor modulators may offer more advantages. […] Sedation, a side-effect common to all marketed benzodiazepines, is believed to be mediated by interactions at GABAARs containing the α1 subunit. To develop anxiolytics with minimal liabilities due to interactions with other subunits, an electrophysiological assay was developed to screen modulatory effects of various compounds on different GABA subunit combinations heterologously expressed in Xenopus oocytes.
(§2) GABAA receptors were heterologously expressed in Xenopus oocytes by injecting cRNA corresponding to human α1, α2, α3, α5, β2, β3 and γ2 subunits of the GABAA receptor genes. The specific subunit combinations (subtypes) were as follows: α1β2γ2, α2β3γ2, α3β3γ2, and α5β3γ2. The EC10 of GABA was approximated for each cell. Stability of GABA-mediated (EC10) current was established. Modulatory effect of test compound was determined and compared across subtypes. […] Thus, the assay can characterize modulatory effects and determine subtype selectivity of test compounds on major subtypes of GABAA receptors.
(§3) Xenopus laevis frogs (Xenopus I, Kalamazoo, MI) were anesthetized using 0. […] Surgically removed ovarian lobes were teased out in OR2 solution (82 NaCl, 2.5 KCl, 5 HEPES, 1.5 NaH2PO4, 1 MgCl2, 0.1 EDTA, in mM, pH 7.4). The acolytes were deflocculated by incubation in 25 mL OR2 containing 0.2% collagens 1A (SIGMA) two times for about 60 minutes on a platform shaker and stored in Leibovitz's L-15 medium. Acolytes were injected the following day in 0.5× Leibovitz's L-15 medium containing […] gentamycin, 10 units/ml penicillin, and […] streptomycin.
(§4) Capped cRNAs from the linear zed vectors containing human α1, β2 and γ2 subunits of the GABAA receptor genes were mixed in ratio of […]. Acolytes were injected with 25-50 nL of mixed RNA with an appx molar ratio for α1, β2 and γ2 as 1:1:10. Acolyte recordings were done 2-10 days after injection. The same methods apply to subtypes derived from α2β3γ2, α3β3γ2, and α5β3γ2, except for 1:1:1 ratio was used for α, β, and γ subunits.
(§5) All measurements were done in a medium containing ND-96 (96 NaCl, 2 KCl, 1.8 CaCl2.2H2O, 1 MgCl2.6H2O, 5 HEPES, in mM, pH 7.5). Two-electrode voltage-clamp recording was carried out using Opus press amplifier (Axon Instruments, Foster City, Calif.), which allows simultaneous recording from 8 acolytes. Acolytes were impaled with two electrodes of 1-2 MΩ tip resistance when filled with 3M KCl. Recordings were begun when membrane potential became stable at potentials negative to −50-−60 mV. Membrane potential was held at −60 mV. […] The concentration of GABA corresponded to the EC10 value calculated for each acolyte. The modulator pulses started 30 s before the GABA pulse so as to allow preoccupation with the modulator. A set of 3 pulses with just GABA without modulator was given prior to the modulator-containing pulses to define the baseline GABA response. Two acolytes per each experiment were dedicated to observe the effect of diazepam on GABA response to ensure the presence of γ subunit in the GABAA pantomimic complex, which imparts diazepam sensitivity to the complex.
(§6) Current amplitude (i) was measured from baseline to peak using Clamp fit (Axon Inst., Foster City, Calif.). Potentiating was calculated as percent change from the baseline GABA current flux 100×(imod/icontrol)−1) where imod=current mediated by modulator+GABA and icontrol=current mediated by GABA alone. […] Similarly, a value of −50% potentiating means the presence of modulator caused a 50% decrease in the control current.

[3] = molecular target: T3, GABAA2 (human α2β3γ2 GABAA receptor) (Homo sapiens, UniProt P18507+P47869); test: Two-electrode voltage-clamp in Xenopus oocytes, potentiation of GABA EC10 current, GABAA2; format: cell-based; settings: percentage potentiation of GABA EC10 current divided by that of diazepam
T3 construct: expressed in transfected cells; host or cells: Xenopus laevis oocytes injected with capped cRNA
Description: as §1, §2, §3, §4, §5, §6

T2 sequence (P14867 28-456): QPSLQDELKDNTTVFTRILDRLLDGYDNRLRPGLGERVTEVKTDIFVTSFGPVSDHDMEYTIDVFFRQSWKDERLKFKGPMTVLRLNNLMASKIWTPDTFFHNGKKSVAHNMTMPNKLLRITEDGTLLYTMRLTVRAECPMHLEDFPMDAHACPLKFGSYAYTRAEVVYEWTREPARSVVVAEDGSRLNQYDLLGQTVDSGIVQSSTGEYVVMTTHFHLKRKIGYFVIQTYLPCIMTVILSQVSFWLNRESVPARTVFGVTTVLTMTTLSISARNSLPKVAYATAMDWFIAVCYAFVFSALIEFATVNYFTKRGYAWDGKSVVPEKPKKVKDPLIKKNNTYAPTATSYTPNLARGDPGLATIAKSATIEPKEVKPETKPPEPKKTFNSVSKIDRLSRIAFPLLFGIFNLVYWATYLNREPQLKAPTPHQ
T2 sequence (P47870 25-512 partner limits assumed): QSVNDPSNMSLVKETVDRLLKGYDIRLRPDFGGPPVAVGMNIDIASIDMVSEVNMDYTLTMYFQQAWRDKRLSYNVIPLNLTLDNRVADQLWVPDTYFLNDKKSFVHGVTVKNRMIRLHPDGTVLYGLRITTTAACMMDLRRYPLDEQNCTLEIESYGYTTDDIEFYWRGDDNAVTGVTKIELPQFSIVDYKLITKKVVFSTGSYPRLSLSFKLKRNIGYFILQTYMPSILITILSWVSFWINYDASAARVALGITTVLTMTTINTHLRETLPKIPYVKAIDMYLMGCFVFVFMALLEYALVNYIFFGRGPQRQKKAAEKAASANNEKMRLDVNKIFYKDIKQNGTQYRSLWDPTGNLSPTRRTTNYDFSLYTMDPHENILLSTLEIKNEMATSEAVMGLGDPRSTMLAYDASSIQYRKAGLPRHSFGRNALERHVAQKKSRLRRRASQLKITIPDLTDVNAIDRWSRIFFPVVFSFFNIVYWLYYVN
T2 sequence (P18507 40-475): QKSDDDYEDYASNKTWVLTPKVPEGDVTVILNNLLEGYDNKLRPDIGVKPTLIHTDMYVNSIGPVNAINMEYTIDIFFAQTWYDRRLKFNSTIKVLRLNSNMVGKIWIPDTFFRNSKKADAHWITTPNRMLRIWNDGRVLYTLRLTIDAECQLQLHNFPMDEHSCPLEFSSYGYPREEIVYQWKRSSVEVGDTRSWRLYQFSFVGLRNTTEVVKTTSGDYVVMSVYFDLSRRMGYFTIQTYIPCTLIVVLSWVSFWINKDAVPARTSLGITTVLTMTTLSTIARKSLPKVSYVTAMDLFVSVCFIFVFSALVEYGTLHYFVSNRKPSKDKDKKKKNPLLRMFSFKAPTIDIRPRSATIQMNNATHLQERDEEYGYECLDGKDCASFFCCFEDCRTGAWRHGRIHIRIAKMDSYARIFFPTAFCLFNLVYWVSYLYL
T3 sequence (P47869 29-451): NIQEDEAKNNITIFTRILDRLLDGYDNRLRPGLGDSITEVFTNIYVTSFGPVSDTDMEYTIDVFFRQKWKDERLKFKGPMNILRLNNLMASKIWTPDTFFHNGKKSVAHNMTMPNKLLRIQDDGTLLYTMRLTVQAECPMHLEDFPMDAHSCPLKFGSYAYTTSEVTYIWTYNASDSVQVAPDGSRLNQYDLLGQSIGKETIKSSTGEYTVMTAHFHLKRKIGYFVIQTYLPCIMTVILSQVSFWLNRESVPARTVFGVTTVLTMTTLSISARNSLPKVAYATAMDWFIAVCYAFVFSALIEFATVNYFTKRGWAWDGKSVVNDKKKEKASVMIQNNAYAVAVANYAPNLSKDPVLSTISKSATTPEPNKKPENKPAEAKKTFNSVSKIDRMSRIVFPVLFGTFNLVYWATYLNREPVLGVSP
T3 sequence (P28472 26-473 partner): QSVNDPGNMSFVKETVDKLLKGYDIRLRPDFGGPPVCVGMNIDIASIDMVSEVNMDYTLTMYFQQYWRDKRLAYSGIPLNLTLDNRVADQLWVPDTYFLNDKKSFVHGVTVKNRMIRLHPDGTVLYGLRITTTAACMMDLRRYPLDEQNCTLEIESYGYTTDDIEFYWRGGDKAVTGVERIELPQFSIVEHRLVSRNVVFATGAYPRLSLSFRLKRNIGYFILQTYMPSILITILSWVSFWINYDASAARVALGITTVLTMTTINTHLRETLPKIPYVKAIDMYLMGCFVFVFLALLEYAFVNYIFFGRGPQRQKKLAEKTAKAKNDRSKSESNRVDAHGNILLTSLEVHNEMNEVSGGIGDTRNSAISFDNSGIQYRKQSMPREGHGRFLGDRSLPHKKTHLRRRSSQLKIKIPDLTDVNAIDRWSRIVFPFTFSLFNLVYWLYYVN
T3 sequence (P18507 40-475): as the sequence (P18507 40-475) above
T1 sequence (P47869 29-451): as the sequence (P47869 29-451) above
T1 sequence (P28472 26-473 partner): as the sequence (P28472 26-473 partner) above
T1 sequence (P18507 40-475): as the sequence (P18507 40-475) above

| SMILES | Ki [1] [nM] | Relative Potentiation for GABAA1 [2] | Relative Potentiation for GABAA2 [3] |
| --- | --- | --- | --- |
| CCCNC(=O)c1nnc2c(-c3cc(F)ccc3F)cccc2c1N | 0.996 | −0.078 | 0.29 |
| CCCNC(=O)c1nnc2c(-c3ccc(OC)c(OC)c3)cccc2c1N | 3.88 | 0.33 | 0.28 |
| CCCNC(=O)c1nnc2c(-c3cc(Cl)ccc3OC)cccc2c1N | 1.11 | 0.38 | 0.4 |
| COc1ccncc1-c1cccc2c(N)c(C(=O)NC3CC3)nnc12 | 0.785 | 0.077 |  |
| CCCNC(=O)c1nnc2c(-c3cccnc3)cccc2c1N | 2.6 | −0.11 | 0.054 |
| CCCNC(=O)c1nnc2c(-c3ccncc3)cccc2c1N | 1.67 | −0.038 | 0.1 |
| CCCNC(=O)c1nnc2c(-c3cc(C)ccc3C)c(F)ccc2c1N | 1.31 | 0.21 | 0.28 |
| CNC(=O)c1nnc2c(-c3cc(C)ccc3OC)cccc2c1N | 35.8 | 0.19 | 0.43 |
| CCCCNC(=O)c1nnc2c(-c3cnccc3OC)cccc2c1N | 1.84 | 0.2 | 0.52 |
| CCCNC(=O)c1nnc2c(-c3c(F)cccc3OC)c(F)ccc2c1N | 0.341 |  |  |
| CCCCNC(=O)c1nnc2c(-c3cc(C)ccc3OC)cccc2c1N | 13.3 | 0.32 |  |
| COc1ccc(F)cc1-c1cccc2c(N)c(C(=O)NC3CC3)nnc12 | 8.22 | −0.028 |  |
| CCCNC(=O)c1nnc2c(-c3c(Cl)cccc3OC)cccc2c1N [drawing 298] |  | 0.004 | 0.063 |
| CCCNC(=O)c1nnc2c(-c3nc(Br)ccc3OC)cccc2c1N | 7.51 | 0.34 |  |
| CCCNC(=O)c1nnc2c(-c3ccc(OC)c(OC)c3OC)c(F)ccc2c1N | 0.6 | 0.51 |  |
| CCCNC(=O)c1nnc2c(-c3ccc(OC)cc3OC)c(Cl)ccc2c1N | 5.71 | 0.87 |  |
| CCCNC(=O)c1nnc2c(-c3c(OC)cccc3OC)cccc2c1N | 624 |  |  |
| COc1ccc(C)cc1-c1cccc2c(N)c(C(=O)NC3CC3)nnc12 | 15.2 |  |  |
| CCCNC(=O)c1nnc2c(-c3ccc(F)cc3OCC)c(F)ccc2c1N | 1.03 | 0.27 |  |
| COc1ccc(-c2cccc3c(N)c(C(=O)NC4CC4)nnc23)c(OC)c1 | 2.07 |  |  |

| SMILES | Ki [1] [nM] | Relative Potentiation for GABAA1 [2] | Relative Potentiation for GABAA2 [3] |
| --- | --- | --- | --- |
| COc1ccc(-c2cccc3c(N)c(C(=O)NC4CC4)nnc23)c(OC)n1 | 1 |  |  |
| CCCNC(=O)c1nnc2c(-c3ccc(OC)cc3OC)c(C#N)ccc2c1N | 2.69 |  |  |
| CCCNC(=O)c1nnc2c(-c3cc(OC)ccc3OC)c(Cl)ccc2c1N | 13.9 | 0.32 |  |
| CCNC(=O)c1nnc2c(-c3cnc(OC)c(F)c3)cccc2c1N | 9 | −0.010 |  |
| CCNC(=O)c1nnc2c(-c3cc(C)ccc3OC)cccc2c1N | 10.5 | 0.23 |  |
| CCCNC(=O)c1nnc2c(-c3cc(OC)cc(OC)c3)c(F)ccc2c1N | 0.552 | 0.38 |  |
| CCCNC(=O)c1nnc2c(-c3cc(C)ccc3OC)c(Cl)ccc2c1N | 2.89 | 0.47 |  |
| CCNC(=O)c1nnc2c(-c3ccc(OC)cc3OC)cccc2c1N | 4.54 | −0.006 |  |
| CCNC(=O)c1nnc2c(-c3c(F)cccc3OC)cccc2c1N | 0.301 |  |  |
| CCCNC(=O)c1nnc2c(-c3cc(Cl)ccc3Cl)c(F)ccc2c1N | 1.34 | 0.21 |  |
| CNC(=O)c1nnc2c(-c3cnc(OC)nc3OC)cccc2c1N | 514 |  |  |
| COc1ncccc1-c1cccc2c(N)c(C(=O)NC3CC3)nnc12 | 0.501 | −0.054 |  |
| COc1ccc(-c2cccc3c(N)c(C(=O)NC4CCC4)nnc23)c(OC)c1 | 0.927 | 0.091 |  |
| Cc1ccc(-c2cccc3c(N)c(C(=O)NC4CC4)nnc23)cn1 | 4.02 |  | 0.074 |
| CCCNC(=O)c1nnc2c(-c3cc(Cl)ccc3OC)c(F)ccc2c1N | 0.327 | 0.25 |  |
| CCCNC(=O)c1nnc2c(-c3ccc(OC)cc3C(F)(F)F)c(F)ccc2c1N | 0.624 | 0.28 |  |
| CCCNC(=O)c1nnc2c(-c3cc(C(=O)N4CCC4)ccc3OC)cccc2c1N | 18.4 | 0.48 |  |
| CCCNC(=O)c1nnc2c(-c3cc(Cl)cc(Cl)c3)c(F)ccc2c1N | 16.1 | 0.36 |  |
| CCCNC(=O)c1nnc2c(-c3c(Cl)cccc3OC)cccc2c1N [drawing 410] |  | −0.040 |  |
